From patent publication US20220202799A1, “PHARMACEUTICAL FORMULATIONS CONTAINING P2Y14 ANTAGONISTS” (priority 2019, published 2022)
Several values for one entry are separate records, joined by “and”; a condition that tells them apart may be missing. Identical values can stand only once. Like-named read-outs stand apart in the source and are kept apart here.

Assays:
[1] = Plasma concentrations and TK parameters, 72-hour continuous intravenous infusion; type: in vivo, Sprague-Dawley rats; conditions: for concentration at 48 h / concentration at 72 h / concentration at 78 h / concentration at 84 h / concentration at 96 h / concentration at 24 h: Sprague-Dawley, rat, plasma, iv
Protocol: (§1) The safety and pharmacokinetics of PPTN (KB-1801) in rats receiving continuous intravenous injections of SBECD-containing solutions were analyzed. Three cohorts of six male and six female rats each were given continuous intravenous infusion of PPTN (KB-1801) at 10 mg/kg/day, 30 mg/kg/day or 100 mg/kg/day in a dosing solution containing PPTN at 0.25 mg/mL, 0.75 mg/mL or 2.5 mg/mL and SBECD at about 3.8%. Dosing volume was 40 mIkg/day. [table]

rats = assay: Safety of PPTN/SBECD formulations during continuous intravenous infusion; type: in vivo; conditions: male Sprague-Dawley rat; 72-hour intravenous infusion at 100 mg/kg
Protocol: as §1, with “mIkg/day.” for “mIkg/day. [table]”

O=C(O)c1cc(-c2ccc(C3CCNCC3)cc2)c2ccc(-c3ccc(C(F)(F)F)cc3)cc2c1 [KB-1801, 4-[4-(piperidin-4-yl)phenyl]-7-[4-(trifluoromethyl)phenyl]-2-naphthoic acid]
concentration at 48 h ([1]; female, 100 mg/kg/day, female Sprague-Dawley rats, 72-hour intravenous infusion at 100 mg/kg/day, time 48 h, read-out: Plasma concentration, individual animal): 6070 ng/mL
concentration at 72 h ([1]; female, 100 mg/kg/day, female Sprague-Dawley rats, 72-hour intravenous infusion at 100 mg/kg/day, time 72 h, read-out: Plasma concentration, Mean): 6840 ng/mL
concentration at 72 h ([1]; female, 100 mg/kg/day, female Sprague-Dawley rats, 72-hour intravenous infusion at 100 mg/kg/day, time 72 h, read-out: Plasma concentration, individual animal): 7110 ng/mL
concentration at 78 h ([1]; female, 100 mg/kg/day, female Sprague-Dawley rats, 72-hour intravenous infusion at 100 mg/kg/day, time 78 h, read-out: Plasma concentration, Mean): 1820 ng/mL
concentration at 78 h ([1]; female, 100 mg/kg/day, female Sprague-Dawley rats, 72-hour intravenous infusion at 100 mg/kg/day, time 78 h, read-out: Plasma concentration, individual animal): 1900 ng/mL
concentration at 84 h ([1]; female, 100 mg/kg/day, female Sprague-Dawley rats, 72-hour intravenous infusion at 100 mg/kg/day, time 84 h, read-out: Plasma concentration, Mean): 987 ng/mL
concentration at 84 h ([1]; female, 100 mg/kg/day, female Sprague-Dawley rats, 72-hour intravenous infusion at 100 mg/kg/day, time 84 h, read-out: Plasma concentration, individual animal): 841 ng/mL
concentration at 96 h ([1]; female, 100 mg/kg/day, female Sprague-Dawley rats, 72-hour intravenous infusion at 100 mg/kg/day, time 96 h, read-out: Plasma concentration, Mean): 281 ng/mL
concentration at 96 h ([1]; female, 100 mg/kg/day, female Sprague-Dawley rats, 72-hour intravenous infusion at 100 mg/kg/day, time 96 h, read-out: Plasma concentration, individual animal): 288 ng/mL
Plasma concentration, individual animal ([1]; male Sprague-Dawley rats, 72-hour intravenous infusion at 10 mg/kg/day, time 24 h, 10 mg/kg/day): 547.8 ng/mL and 952.8 ng/mL
Plasma concentration, individual animal ([1]; male Sprague-Dawley rats, 72-hour intravenous infusion at 10 mg/kg/day, time 48 h, 10 mg/kg/day): 539.5 ng/mL and 752.7 ng/mL
Plasma concentration, individual animal ([1]; male Sprague-Dawley rats, 72-hour intravenous infusion at 10 mg/kg/day, time 72 h, 10 mg/kg/day): 617.8 ng/mL and 545.9 ng/mL
Plasma concentration, individual animal ([1]; male Sprague-Dawley rats, 72-hour intravenous infusion at 10 mg/kg/day, time 78 h, 10 mg/kg/day): 205.5 ng/mL and 170.5 ng/mL
Plasma concentration, individual animal ([1]; male Sprague-Dawley rats, 72-hour intravenous infusion at 10 mg/kg/day, time 84 h, 10 mg/kg/day): 82.6 ng/mL and 128.1 ng/mL
Plasma concentration, individual animal ([1]; male Sprague-Dawley rats, 72-hour intravenous infusion at 10 mg/kg/day, time 96 h, 10 mg/kg/day): 60.2 ng/mL and 45.0 ng/mL
Plasma concentration, individual animal ([1]; male Sprague-Dawley rats, 72-hour intravenous infusion at 30 mg/kg/day, time 24 h, 30 mg/kg/day): 1855.0 ng/mL and 2482.4 ng/mL
Plasma concentration, individual animal ([1]; male Sprague-Dawley rats, 72-hour intravenous infusion at 30 mg/kg/day, time 48 h, 30 mg/kg/day): 2175.6 ng/mL and 2510.8 ng/mL
Plasma concentration, individual animal ([1]; male Sprague-Dawley rats, 72-hour intravenous infusion at 30 mg/kg/day, time 72 h, 30 mg/kg/day): 1871.2 ng/mL and 2031.5 ng/mL
Plasma concentration, individual animal ([1]; male Sprague-Dawley rats, 72-hour intravenous infusion at 30 mg/kg/day, time 78 h, 30 mg/kg/day): 690.2 ng/mL and 818.5 ng/mL
Plasma concentration, individual animal ([1]; male Sprague-Dawley rats, 72-hour intravenous infusion at 30 mg/kg/day, time 84 h, 30 mg/kg/day): 273.1 ng/mL and 309.1 ng/mL
Plasma concentration, individual animal ([1]; male Sprague-Dawley rats, 72-hour intravenous infusion at 30 mg/kg/day, time 96 h, 30 mg/kg/day): 164.1 ng/mL and 213.1 ng/mL
Plasma concentration, individual animal ([1]; male Sprague-Dawley rats, 72-hour intravenous infusion at 100 mg/kg, time 24 h, 100 mg/kg): 7597.9 ng/mL and 10702.8 ng/mL
Plasma concentration, individual animal ([1]; male Sprague-Dawley rats, 72-hour intravenous infusion at 100 mg/kg, time 48 h, 100 mg/kg): 6182.8 ng/mL and 7504.3 ng/mL
Plasma concentration, individual animal ([1]; male Sprague-Dawley rats, 72-hour intravenous infusion at 100 mg/kg, time 72 h, 100 mg/kg): 7768.2 ng/mL
Plasma concentration, individual animal ([1]; male Sprague-Dawley rats, 72-hour intravenous infusion at 100 mg/kg, time 78 h, 100 mg/kg): 1893.5 ng/mL and 2808.6 ng/mL
Plasma concentration, individual animal ([1]; male Sprague-Dawley rats, 72-hour intravenous infusion at 100 mg/kg, time 84 h, 100 mg/kg): 1818.2 ng/mL
Plasma concentration, individual animal ([1]; male Sprague-Dawley rats, 72-hour intravenous infusion at 100 mg/kg, time 96 h, 100 mg/kg): 333.5 ng/mL and 482.1 ng/mL
concentration at 24 h ([1]; male, 10 mg/kg/day, male Sprague-Dawley rats, 72-hour intravenous infusion at 10 mg/kg/day, time 24 h, read-out: Plasma concentration, Mean): 803 ng/mL
concentration at 24 h ([1]; male, 10 mg/kg/day, male Sprague-Dawley rats, 72-hour intravenous infusion at 10 mg/kg/day, time 24 h, read-out: Plasma concentration, individual animal): 908 ng/mL
concentration at 48 h ([1]; male, 10 mg/kg/day, male Sprague-Dawley rats, 72-hour intravenous infusion at 10 mg/kg/day, time 48 h, read-out: Plasma concentration, Mean): 602 ng/mL
concentration at 48 h ([1]; male, 10 mg/kg/day, male Sprague-Dawley rats, 72-hour intravenous infusion at 10 mg/kg/day, time 48 h, read-out: Plasma concentration, individual animal): 515 ng/mL
concentration at 72 h ([1]; male, 10 mg/kg/day, male Sprague-Dawley rats, 72-hour intravenous infusion at 10 mg/kg/day, time 72 h, read-out: Plasma concentration, Mean): 594 ng/mL
concentration at 72 h ([1]; male, 10 mg/kg/day, male Sprague-Dawley rats, 72-hour intravenous infusion at 10 mg/kg/day, time 72 h, read-out: Plasma concentration, individual animal): 618 ng/mL
concentration at 78 h ([1]; male, 10 mg/kg/day, male Sprague-Dawley rats, 72-hour intravenous infusion at 10 mg/kg/day, time 78 h, read-out: Plasma concentration, Mean): 208 ng/mL
concentration at 78 h ([1]; male, 10 mg/kg/day, male Sprague-Dawley rats, 72-hour intravenous infusion at 10 mg/kg/day, time 78 h, read-out: Plasma concentration, individual animal): 249 ng/mL
concentration at 84 h ([1]; male, 10 mg/kg/day, male Sprague-Dawley rats, 72-hour intravenous infusion at 10 mg/kg/day, time 84 h, read-out: Plasma concentration, Mean): 98.9 ng/mL
concentration at 84 h ([1]; male, 10 mg/kg/day, male Sprague-Dawley rats, 72-hour intravenous infusion at 10 mg/kg/day, time 84 h, read-out: Plasma concentration, individual animal): 86 ng/mL
concentration at 96 h ([1]; male, 10 mg/kg/day, male Sprague-Dawley rats, 72-hour intravenous infusion at 10 mg/kg/day, time 96 h, read-out: Plasma concentration, Mean): 55.1 ng/mL
concentration at 96 h ([1]; male, 10 mg/kg/day, male Sprague-Dawley rats, 72-hour intravenous infusion at 10 mg/kg/day, time 96 h, read-out: Plasma concentration, individual animal): 60 ng/mL
concentration at 24 h ([1]; male, 30 mg/kg/day, male Sprague-Dawley rats, 72-hour intravenous infusion at 30 mg/kg/day, time 24 h, read-out: Plasma concentration, Mean): 1950 ng/mL
concentration at 24 h ([1]; male, 30 mg/kg/day, male Sprague-Dawley rats, 72-hour intravenous infusion at 30 mg/kg/day, time 24 h, read-out: Plasma concentration, individual animal): 1520 ng/mL
concentration at 48 h ([1]; male, 30 mg/kg/day, male Sprague-Dawley rats, 72-hour intravenous infusion at 30 mg/kg/day, time 48 h, read-out: Plasma concentration, Mean): 2500 ng/mL
concentration at 48 h ([1]; male, 30 mg/kg/day, male Sprague-Dawley rats, 72-hour intravenous infusion at 30 mg/kg/day, time 48 h, read-out: Plasma concentration, individual animal): 2800 ng/mL
concentration at 72 h ([1]; male, 30 mg/kg/day, male Sprague-Dawley rats, 72-hour intravenous infusion at 30 mg/kg/day, time 72 h, read-out: Plasma concentration, Mean): 1670 ng/mL
concentration at 72 h ([1]; male, 30 mg/kg/day, male Sprague-Dawley rats, 72-hour intravenous infusion at 30 mg/kg/day, time 72 h, read-out: Plasma concentration, individual animal): 1110 ng/mL
concentration at 78 h ([1]; male, 30 mg/kg/day, male Sprague-Dawley rats, 72-hour intravenous infusion at 30 mg/kg/day, time 78 h, read-out: Plasma concentration, Mean): 736 ng/mL
concentration at 78 h ([1]; male, 30 mg/kg/day, male Sprague-Dawley rats, 72-hour intravenous infusion at 30 mg/kg/day, time 78 h, read-out: Plasma concentration, individual animal): 698 ng/mL
concentration at 84 h ([1]; male, 30 mg/kg/day, male Sprague-Dawley rats, 72-hour intravenous infusion at 30 mg/kg/day, time 84 h, read-out: Plasma concentration, Mean): 290 ng/mL
concentration at 84 h ([1]; male, 30 mg/kg/day, male Sprague-Dawley rats, 72-hour intravenous infusion at 30 mg/kg/day, time 84 h, read-out: Plasma concentration, individual animal): 289 ng/mL
concentration at 96 h ([1]; male, 30 mg/kg/day, male Sprague-Dawley rats, 72-hour intravenous infusion at 30 mg/kg/day, time 96 h, read-out: Plasma concentration, Mean): 172 ng/mL
concentration at 96 h ([1]; male, 30 mg/kg/day, male Sprague-Dawley rats, 72-hour intravenous infusion at 30 mg/kg/day, time 96 h, read-out: Plasma concentration, individual animal): 139 ng/mL
concentration at 24 h ([1]; male, 100 mg/kg, male Sprague-Dawley rats, 72-hour intravenous infusion at 100 mg/kg, time 24 h, read-out: Plasma concentration, Mean): 9550 ng/mL
concentration at 24 h ([1]; male, 100 mg/kg, male Sprague-Dawley rats, 72-hour intravenous infusion at 100 mg/kg, time 24 h, read-out: Plasma concentration, individual animal): 10300 ng/mL
concentration at 48 h ([1]; male, 100 mg/kg, male Sprague-Dawley rats, 72-hour intravenous infusion at 100 mg/kg, time 48 h, read-out: Plasma concentration, Mean): 7030 ng/mL
concentration at 48 h ([1]; male, 100 mg/kg, male Sprague-Dawley rats, 72-hour intravenous infusion at 100 mg/kg, time 48 h, read-out: Plasma concentration, individual animal): 7400 ng/mL
concentration at 72 h ([1]; male, 100 mg/kg, male Sprague-Dawley rats, 72-hour intravenous infusion at 100 mg/kg, time 72 h, read-out: Plasma concentration, Mean): 9790 ng/mL
concentration at 72 h ([1]; male, 100 mg/kg, male Sprague-Dawley rats, 72-hour intravenous infusion at 100 mg/kg, time 72 h, read-out: Plasma concentration, individual animal): 11800 ng/mL
concentration at 78 h ([1]; male, 100 mg/kg, male Sprague-Dawley rats, 72-hour intravenous infusion at 100 mg/kg, time 78 h, read-out: Plasma concentration, Mean): 2640 ng/mL
concentration at 78 h ([1]; male, 100 mg/kg, male Sprague-Dawley rats, 72-hour intravenous infusion at 100 mg/kg, time 78 h, read-out: Plasma concentration, individual animal): 3220 ng/mL
concentration at 84 h ([1]; male, 100 mg/kg, male Sprague-Dawley rats, 72-hour intravenous infusion at 100 mg/kg, time 84 h, read-out: Plasma concentration, Mean): 2230 ng/mL
concentration at 84 h ([1]; male, 100 mg/kg, male Sprague-Dawley rats, 72-hour intravenous infusion at 100 mg/kg, time 84 h, read-out: Plasma concentration, individual animal): 2650 ng/mL
concentration at 96 h ([1]; male, 100 mg/kg, male Sprague-Dawley rats, 72-hour intravenous infusion at 100 mg/kg, time 96 h, read-out: Plasma concentration, Mean): 471 ng/mL
concentration at 96 h ([1]; male, 100 mg/kg, male Sprague-Dawley rats, 72-hour intravenous infusion at 100 mg/kg, time 96 h, read-out: Plasma concentration, individual animal): 598 ng/mL
Time for plasma PPTN concentrations to reach steady state ([1]; rats, continuous intravenous infusion): ≤ 24 h
Plasma PPTN concentrations, relation to dose ([1]; rats, continuous intravenous infusion 10, 30, 100 mg/kg/day): linearly dose-related
Mortality, animal 16003 (rats): NS: No Sample. Animal 16003 died shortly after the 24h timepoint according to CRL.
